Square brackets hold non-standard residues; d marks the D form. Ends that are not written are not given here. pGlu = O=C1CC[C@@H](C(=O)O)N1
System: panelists
Assay: Attribute perception scores of flavor enhancers in solution (Example 6)
Type: in vivo, human
Set-up: key to Metallic / Numbing / Atringent / Salt / Sweet / Sour / Bitter / Umami / Sour, mean evaluation score in solution / Numbing, mean evaluation score in solution / Astringent / Umami FF: 15-point intensity scale, 0 = none, 15 = very strong
Conditions: for Astringent / Bitter / Flinty/Mineral / Metallic / Numbing / Salt / Sour / Sweet / Umami / Umami FF / Atringent / Mineral/Flinty / Umami/brothy: solution
Protocol: Descriptive attributes (e.g., taste, flavor and chemical feeling factors) of three use levels of pGlu-Cys (FE-35), pGlu-Cys-Gly (FE-36), pGlu-Cys-Cys (FE-37), pGlu-Cys-Val (FE-38) and pGlu-Val-Cys (UE-30) flavor composition peptides were determined. The three use levels were as follows: 1.0 ppb, 10.0 ppb and 100.0 ppb.
Data was collected for the attributes of the product in-mouth for the use levels according to the following protocol: • The samples were analyzed for flavor by six to nine members of a panel, trained and experienced in flavor evaluation using the Spectrum™ method. Samples were evaluated across multiple panel sessions. • The strength of each attribute was rated on a 15-point scale, where 0=none and 15=very strong. • This scale incorporates the ability to use tenths of a point and therefore has the potential of 150 scale differentiations. • The scale may be expanded beyond 15 points to include extreme ratings if necessary.
A summary of the concentrations of NaCl, water and flavor composition peptides in the solution samples is described in table 24.
The panelists evaluated each sample for the attributes described by table 25.

[1] = 10.0 ppb, mean evaluation score
[2] = 100.0 ppb, mean evaluation score
[3] = Concentration 1, MAX, 15-point scale
[4] = Concentration 1, MEAN, 15-point scale
[5] = Concentration 1, MIN, 15-point scale
[6] = Concentration 10, MAX, 15-point scale
[7] = Concentration 10, MEAN, 15-point scale
[8] = Concentration 10, MIN, 15-point scale
[9] = Concentration 100, MAX, 15-point scale
[10] = Concentration 100, MEAN, 15-point scale
[11] = Concentration 100, MIN, 15-point scale

Substance: [pGlu]-Cys-Gly [FE-36]
- Patterns of attributes in solution as concentrations increase (1.0 to 100 ppb): No distinct patterns are seen
- Astringent (1.0 ppb, mean evaluation score): 0.0
- Bitter (1.0 ppb, mean evaluation score): 0.0
- Flinty/Mineral (1.0 ppb, mean evaluation score): 0.7
- Metallic (1.0 ppb, mean evaluation score): 0.1
- Numbing (1.0 ppb, mean evaluation score): 0.0
- Salt (1.0 ppb, mean evaluation score): 2.6
- Sour (1.0 ppb, mean evaluation score): 0.0
- Sweet (1.0 ppb, mean evaluation score): 0.2
- Umami (1.0 ppb, mean evaluation score): 0.3
- Umami FF (1.0 ppb, mean evaluation score): 1.5
- Astringent [1]: 0.0
- Bitter [1]: 0.0
- Flinty/Mineral [1]: 0.8
- Metallic [1]: 0.0
- Numbing [1]: 0.0
- Salt [1]: 1.9
- Sour [1]: 0.0
- Sweet [1]: 0.0
- Umami [1]: 0.1
- Umami FF [1]: 0.9
- Astringent [2]: 0.0
- Bitter [2]: 0.0
- Flinty/Mineral [2]: 0.8
- Metallic [2]: 0.0
- Numbing [2]: 0.0
- Salt [2]: 2.1
- Sour [2]: 0.0
- Sweet [2]: 0.0
- Umami [2]: 0.0
- Umami FF [2]: 1.6
- Atringent [3]: 0.0
- Bitter [3]: 0.0
- Metallic [3]: 0.8
- Mineral/Flinty [3]: 1.0
- Numbing [3]: 0.0
- Salt [3]: 3.0
- Sour [3]: 0.0
- Sweet [3]: 1.0
- Umami [3]: 2.0
- Umami/brothy [3]: 1.0
- Atringent [4]: 0.0
- Bitter [4]: 0.0
- Metallic [4]: 0.1
- Mineral/Flinty [4]: 0.7
- Numbing [4]: 0.0
- Salt [4]: 2.6
- Sour [4]: 0.0
- Sweet [4]: 0.2
- Umami [4]: 1.5
- Umami/brothy [4]: 0.3
- Atringent [5]: 0.0
- Bitter [5]: 0.0
- Metallic [5]: 0.0
- Mineral/Flinty [5]: 0.0
- Numbing [5]: 0.0
- Salt [5]: 2.5
- Sour [5]: 0.0
- Sweet [5]: 0.0
- Umami [5]: 1.0
- Umami/brothy [5]: 0.0
- Atringent [6]: 0.0
- Bitter [6]: 0.0
- Metallic [6]: 0.0
- Mineral/Flinty [6]: 1.5
- Numbing [6]: 0.0
- Salt [6]: 2.3
- Sour [6]: 0.0
- Sweet [6]: 0.0
- Umami [6]: 2.0
- Umami/brothy [6]: 0.8
- Atringent [7]: 0.0
- Bitter [7]: 0.0
- Metallic [7]: 0.0
- Mineral/Flinty [7]: 0.8
- Numbing [7]: 0.0
- Salt [7]: 1.9
- Sour [7]: 0.0
- Sweet [7]: 0.0
- Umami [7]: 0.9
- Umami/brothy [7]: 0.1
- Atringent [8]: 0.0
- Bitter [8]: 0.0
- Metallic [8]: 0.0
- Mineral/Flinty [8]: 0.0
- Numbing [8]: 0.0
- Salt [8]: 1.5
- Sour [8]: 0.0
- Sweet [8]: 0.0
- Umami [8]: 0.0
- Umami/brothy [8]: 0.0
- Atringent [9]: 0.0
- Bitter [9]: 0.0
- Metallic [9]: 0.0
- Mineral/Flinty [9]: 1.0
- Numbing [9]: 0.0
- Salt [9]: 3.0
- Sour [9]: 0.0
- Sweet [9]: 0.0
- Umami [9]: 3.0
- Umami/brothy [9]: 0.0
- Atringent [10]: 0.0
- Bitter [10]: 0.0
- Metallic [10]: 0.0
- Mineral/Flinty [10]: 0.8
- Numbing [10]: 0.0
- Salt [10]: 2.1
- Sour [10]: 0.0
- Sweet [10]: 0.0
- Umami [10]: 1.6
- Umami/brothy [10]: 0.0
- Atringent [11]: 0.0
- Bitter [11]: 0.0
- Metallic [11]: 0.0
- Mineral/Flinty [11]: 0.0
- Numbing [11]: 0.0
- Salt [11]: 1.5
- Sour [11]: 0.0
- Sweet [11]: 0.0
- Umami [11]: 0.5
- Umami/brothy [11]: 0.0

Reference: patent US10856562B2, “Flavor composition and edible compositions containing same” (MARS, INCORPORATED, priority 2013, dated 2020)
